Test results from ChEMBL document CHEMBL1154530, “Pyridyl-pyrimidine benzimidazole derivatives as potent, selective, and orally bioavailable inhibitors of Tie-2 kinase” (Bioorg Med Chem Lett, 2009).
pEC50, pIC50: −log10 of the molar value. The source made the active and inactive calls. The calls are words filed in the database; no cut-off is given here.

Key:
Angiopoietin-1 receptor [1] = target: T1, Angiopoietin-1 receptor (Homo sapiens, UniProt Q02763); assay: Inhibition of Tie2
[2] = target: Vascular endothelial growth factor receptor 2 (Homo sapiens, UniProt P35968); assay: Inhibition of KDR
Aurora kinase A = target: T2, Aurora kinase A (Homo sapiens, UniProt O14965); assay: Inhibition of Aurora A
T2 sequence (O14965 whole entry): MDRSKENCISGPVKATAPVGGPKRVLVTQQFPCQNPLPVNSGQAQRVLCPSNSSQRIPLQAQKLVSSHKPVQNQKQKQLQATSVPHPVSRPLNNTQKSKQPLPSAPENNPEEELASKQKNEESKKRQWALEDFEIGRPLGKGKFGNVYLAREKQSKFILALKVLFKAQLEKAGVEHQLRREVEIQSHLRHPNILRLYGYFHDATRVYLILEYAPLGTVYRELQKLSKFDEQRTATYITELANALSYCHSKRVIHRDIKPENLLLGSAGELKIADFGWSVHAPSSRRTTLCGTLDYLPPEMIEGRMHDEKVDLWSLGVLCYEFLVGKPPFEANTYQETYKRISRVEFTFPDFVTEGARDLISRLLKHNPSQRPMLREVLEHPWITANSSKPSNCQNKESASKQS

Aurora kinase B = Aurora kinase B (Homo sapiens, UniProt Q96GD4); assay: Inhibition of Aurora B
[3] = Inhibition of Aurora kinase in human HeLa cells assessed as induction of >=4N DNA content; format: cell-based
[4] = Clearance in Sprague-Dawley rat at 0.5 mg/kg, iv; format: ADME, organism-based; parameters: dose 0.5 mg/kg, route intravenous; settings: in vivo
[5] = Volume of distribution at steady state in Sprague-Dawley rat at 0.5 mg/kg, iv; format: ADME, organism-based; parameters: dose 0.5 mg/kg, route intravenous; settings: in vivo, read-out: Vdss
[6] = Half life in Sprague-Dawley rat at 0.5 mg/kg, iv; format: ADME, organism-based; parameters: dose 0.5 mg/kg, route intravenous; settings: in vivo
[7] = Oral bioavailability in Sprague-Dawley rat at 5 mg/kg; format: ADME, organism-based; settings: in vivo
Mus musculus [8] = assay: Inhibition of human angiopoietin-1-stimulated Tie2 phosphorylation in po dosed mouse lung tissue model; format: functional, organism-based
Mus musculus [9] = assay: Inhibition of human angiopoietin-1-stimulated Tie2 phosphorylation in mouse lung tissue model at >=30 mg/kg, po; format: functional, organism-based
Mus musculus [10] = assay: Inhibition of human angiopoietin-1-stimulated Tie2 phosphorylation in mouse lung tissue model at 10 mg/kg, po; format: functional; parameters: scale not given: the % may be the effect or the level left
Mus musculus [11] = assay: Plasma concentration in mouse at 10 mg/kg, po; format: ADME, organism-based; parameters: dose 10 mg/kg, route oral; settings: in vivo
[12] = Protein binding in mouse plasma; format: ADME, cell-free; settings: read-out: PPB (converted)
Plasma = assay: Unbound concentration in mouse plasma
Angiopoietin-1 receptor [13] = target: T1, Angiopoietin-1 receptor; assay: Inhibition of Tie2 autophosphorylation in human Ea.hy926 cells; format: cell-based
[14] = Inhibition of JNK

T1 sequence (Q02763 whole entry): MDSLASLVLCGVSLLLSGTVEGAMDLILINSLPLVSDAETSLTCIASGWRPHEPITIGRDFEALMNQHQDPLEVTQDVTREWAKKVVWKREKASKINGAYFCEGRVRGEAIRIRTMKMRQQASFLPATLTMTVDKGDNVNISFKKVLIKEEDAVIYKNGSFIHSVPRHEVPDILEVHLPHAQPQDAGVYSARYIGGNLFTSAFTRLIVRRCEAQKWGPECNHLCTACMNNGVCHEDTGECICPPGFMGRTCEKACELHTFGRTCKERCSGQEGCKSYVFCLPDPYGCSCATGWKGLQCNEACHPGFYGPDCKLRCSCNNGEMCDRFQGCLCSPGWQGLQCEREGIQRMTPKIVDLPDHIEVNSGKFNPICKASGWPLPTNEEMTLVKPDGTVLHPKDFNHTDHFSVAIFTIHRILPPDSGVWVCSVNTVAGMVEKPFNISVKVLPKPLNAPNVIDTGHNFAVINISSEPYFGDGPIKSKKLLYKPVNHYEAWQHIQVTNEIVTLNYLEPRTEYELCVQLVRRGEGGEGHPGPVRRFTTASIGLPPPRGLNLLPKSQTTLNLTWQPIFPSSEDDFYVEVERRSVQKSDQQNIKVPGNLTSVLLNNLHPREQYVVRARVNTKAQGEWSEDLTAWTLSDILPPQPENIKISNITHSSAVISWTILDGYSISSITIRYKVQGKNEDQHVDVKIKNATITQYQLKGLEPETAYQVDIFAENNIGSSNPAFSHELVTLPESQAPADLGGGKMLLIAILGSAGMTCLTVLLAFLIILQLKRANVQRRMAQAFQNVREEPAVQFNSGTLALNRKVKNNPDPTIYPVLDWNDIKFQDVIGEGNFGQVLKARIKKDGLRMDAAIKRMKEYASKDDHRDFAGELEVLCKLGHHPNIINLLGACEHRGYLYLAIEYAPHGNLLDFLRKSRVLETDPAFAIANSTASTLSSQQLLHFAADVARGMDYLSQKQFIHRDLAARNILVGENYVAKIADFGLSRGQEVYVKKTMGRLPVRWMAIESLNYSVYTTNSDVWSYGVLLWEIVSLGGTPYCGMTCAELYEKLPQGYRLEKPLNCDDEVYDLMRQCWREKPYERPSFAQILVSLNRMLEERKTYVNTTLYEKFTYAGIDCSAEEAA
Chain of Vascular endothelial growth factor receptor 2 (P35968 whole entry): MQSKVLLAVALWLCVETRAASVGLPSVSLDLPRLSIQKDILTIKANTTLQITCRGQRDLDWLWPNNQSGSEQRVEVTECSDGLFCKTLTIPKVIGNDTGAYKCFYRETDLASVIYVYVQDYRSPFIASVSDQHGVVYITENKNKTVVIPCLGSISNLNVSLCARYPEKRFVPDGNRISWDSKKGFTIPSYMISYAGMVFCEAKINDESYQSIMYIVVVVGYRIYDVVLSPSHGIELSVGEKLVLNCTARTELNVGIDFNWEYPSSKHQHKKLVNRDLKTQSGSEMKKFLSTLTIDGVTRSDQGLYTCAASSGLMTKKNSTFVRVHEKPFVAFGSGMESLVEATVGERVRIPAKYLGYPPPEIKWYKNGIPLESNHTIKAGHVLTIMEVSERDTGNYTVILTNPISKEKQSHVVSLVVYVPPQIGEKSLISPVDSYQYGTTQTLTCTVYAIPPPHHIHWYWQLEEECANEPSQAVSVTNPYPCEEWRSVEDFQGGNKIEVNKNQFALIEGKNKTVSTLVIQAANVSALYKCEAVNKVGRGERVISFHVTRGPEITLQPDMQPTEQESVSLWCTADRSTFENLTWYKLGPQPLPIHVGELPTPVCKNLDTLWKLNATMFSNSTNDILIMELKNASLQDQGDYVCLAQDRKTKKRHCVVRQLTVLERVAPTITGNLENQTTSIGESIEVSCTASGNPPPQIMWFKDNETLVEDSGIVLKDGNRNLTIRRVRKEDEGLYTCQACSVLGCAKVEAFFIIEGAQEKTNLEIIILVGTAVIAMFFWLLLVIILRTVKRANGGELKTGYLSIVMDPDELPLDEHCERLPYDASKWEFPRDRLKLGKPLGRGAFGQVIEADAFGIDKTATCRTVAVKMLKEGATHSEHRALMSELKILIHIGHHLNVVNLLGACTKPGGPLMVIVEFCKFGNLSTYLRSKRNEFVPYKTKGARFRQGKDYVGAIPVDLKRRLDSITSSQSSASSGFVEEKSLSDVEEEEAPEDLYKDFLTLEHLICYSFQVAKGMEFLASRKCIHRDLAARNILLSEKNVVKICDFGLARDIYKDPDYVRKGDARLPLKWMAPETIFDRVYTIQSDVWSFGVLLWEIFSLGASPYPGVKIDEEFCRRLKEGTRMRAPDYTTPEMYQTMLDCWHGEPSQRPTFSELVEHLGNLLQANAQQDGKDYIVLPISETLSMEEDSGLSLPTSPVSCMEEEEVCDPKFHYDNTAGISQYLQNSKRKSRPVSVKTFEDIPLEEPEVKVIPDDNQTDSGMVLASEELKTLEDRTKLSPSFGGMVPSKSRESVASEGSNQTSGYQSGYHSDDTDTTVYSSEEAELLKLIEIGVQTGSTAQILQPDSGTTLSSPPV
Chain of Aurora kinase B (Q96GD4 whole entry): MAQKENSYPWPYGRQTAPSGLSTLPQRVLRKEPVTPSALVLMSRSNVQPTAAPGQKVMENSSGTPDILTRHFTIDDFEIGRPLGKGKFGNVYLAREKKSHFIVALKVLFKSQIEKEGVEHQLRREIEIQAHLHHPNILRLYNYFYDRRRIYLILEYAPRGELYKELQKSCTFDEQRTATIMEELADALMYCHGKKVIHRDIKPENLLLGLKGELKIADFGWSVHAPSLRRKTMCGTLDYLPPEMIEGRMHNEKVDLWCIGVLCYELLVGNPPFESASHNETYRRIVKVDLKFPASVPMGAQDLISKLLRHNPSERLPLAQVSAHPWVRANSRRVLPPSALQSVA

| Structure (SMILES) | pIC50 (Angiopoietin-1 receptor [1]) | pIC50 [2] | other results |
| --- | --- | --- | --- |
| CNc1nccc(-c2cccnc2Oc2ccc(Nc3nc4ccccc4[nH]3)c(C)c2)n1 | 6.23 | < 4.60 | – |
| CNc1nccc(-c2cccnc2Oc2ccc(Nc3nc4ccc(C(F)(F)F)cc4[nH]3)cc2C)n1 | 6.33 | 5.22 | – |
| CNc1nccc(-c2cccnc2Oc2c(C)cc(Nc3nc4ccccc4[nH]3)c3ccccc23)n1 | – | < 5.30 | pIC50 (Aurora kinase A): 7.55; pIC50 (Aurora kinase B): 7.10; pIC50 [3]: < 5.92; clearance [4]: 28 mL/min/kg; Vd [5]: 5.9 L/kg; half-life [6]: 3.7 h; bioavailability [7]: 26%; Activity (Mus musculus [8]): Dose-dependent effect; Activity (Mus musculus [9]): Active; Activity (Mus musculus [10]): 50%; concentration (Mus musculus [11]): 260 nM; fraction unbound [12]: 0.004; unbound plasma concentration (Plasma): 1 nM |
| CNc1nccc(-c2cccnc2Oc2ccc(Nc3nc4ccccc4[nH]3)c(C)c2C)n1 | 6.51 | < 4.60 | – |
| CNc1nccc(-c2cccnc2Oc2ccc(Nc3nc4ccccc4[nH]3)cc2C)n1 | 7.64 | < 4.60 | pIC50 (Angiopoietin-1 receptor [13]): 6.60 |
| CNc1nccc(-c2cccnc2Oc2ccc(Nc3nc4ccccc4[nH]3)cc2)n1 | 6.60 | < 4.60 | – |
| CNc1nccc(-c2cccnc2Oc2ccc(Nc3nc4c(C)cccc4[nH]3)c3ccccc23)n1 | 6.96 | 5.80 | – |
| CNc1nccc(-c2cccnc2Oc2ccc(NC(=O)Nc3ccccc3)cc2C)n1 | 6.34 | 5.12 | – |

Compounds with a higher pIC50 [2], results first:

| pIC50 (Angiopoietin-1 receptor [1]) | pIC50 [2] | Structure (SMILES) | other results |
| --- | --- | --- | --- |
| – | 7.47 | CNc1nccc(-c2cccnc2Oc2ccc(NC(=O)Nc3cccc(C(F)(F)F)c3)cc2C)n1 | – |
| 6.62 | 6.60 | CNc1nccc(-c2cccnc2Oc2ccc(Nc3nc4ccccc4n3C)c3ccccc23)n1 | – |
| 7.57 | 7.16 | CNc1nccc(-c2cccnc2Oc2ccc(Nc3nc4cc(C(F)(F)F)ccc4[nH]3)c3ccccc23)n1 | – |
| 7.80 | 7.52 | CNc1nccc(-c2cccnc2Oc2ccc(Nc3nc4ccccc4o3)c3ccccc23)n1 | – |
| 8.30 | 7.40 | CNc1nccc(-c2cccnc2Oc2ccc(NC(=O)Nc3ccccc3)c3ccccc23)n1 | – |
| 9.00 | 5.85 | CNc1nccc(-c2cccnc2Oc2ccc(Nc3nc4ccccc4[nH]3)c3ccccc23)n1 | pEC50 [14]: > 7.00; pIC50 (Angiopoietin-1 receptor [13]): 7.70; pIC50 (Aurora kinase A): 7.72; pIC50 (Aurora kinase B): 8.00; pIC50 [3]: 6.92 |
| 7.36 | 7.06 | CNc1nccc(-c2cccnc2Oc2ccc(Nc3nc4ccccc4s3)c3ccccc23)n1 | – |
